Results published in US11654178B2, “Cyclic prosaposin peptides and uses thereof” (CHILDREN'S MEDICAL CENTER CORPORATION, priority 2014, dated 2023).
Where a SMILES comes first, the peptide text is derived from it. Where no end group is shown, it is not given here. [ ]: non-standard residue; d: D form.

Key:
[1] = system: primary human ovarian cancer cell lines; test: Cell number (Wst-1) and apoptosis (Annexin V/PI FACS) of patient derived ovarian cancer cell lines; type: cell-based
Excerpt: FIGS. 12A-12E show stimulation of Tsp-1 and its effects on ovarian cancer cell growth and survival. FIG. 12A is a western blot of Tsp-1 and β-actin in WI-38 lung fibroblasts that were untreated (−) or treated with native DWLP (SEQ ID NO: 6), L-amino acid, prosaposin peptide (WT), dWIP (SEQ ID NO: 5, lower case d and 1 indicate D-amino acids) prosaposin peptide (d1.3) or DwLp (SEQ ID NO: 7, lower case w and p indicate D-amino acids) prosaposin peptide (d2,4): […] is a western blot of Tsp-1 and β-actin in mouse lung tissue harvested from mice treated with metastatic prostate cancer cell conditioned media alone (−) or in combination with DWLP (SEQ ID NO: 6) prosaposin peptide (WT) or dWIP (SEQ ID NO: 5, lower case d and l indicate D-amino acids) prosaposin peptide (d1,3 peptide) at doses of 10 and 30 mg/kg/day for 3 days; FIG. 12C is a western blot of CD36 and β-actin in 8 patient derived ovarian cancer cell lines; FIG. 12D is a plot of cell number as measured by Wst-1 assay of a patient derived ovarian cancer cell line treated with 1 μM recombinant human Tsp-1 (rhTsp-1) for 24, 48 and 72 hours; and FIG. 12E is a FACS analysis of Annexin V and PI of a patient derived ovarian cancer cell line treated with 1 μM recombinant human Tsp-1 (rhTsp-1) for 48 hours.
In order to test the efficacy of the d-amino acid Psap peptide, a suitable tumor model that would represent a potential clinical application for the peptide, was determined. Given that Psap, and the peptide derived from it, stimulates Tsp-1 in bone marrow derived cells that are recruited to sites of metastasis, a specific type of cancer that expressed the receptor for Tsp-1 that mediates its pro-apoptotic activity, CD36 was sought to be identified (5). It has been reported that serous ovarian epithelial cells and human ovarian cancer cells express CD36 (11-13). […] Three of these cell lines were treated with recombinant human Tsp-1 for up to 72 hours and determined its effect on cell number and apoptosis.

DF14 cells = test: PDX model of established ovarian cancer metastases, d-amino acid Psap peptide; type: in vivo; design: mice that died from adverse side effects / decrease of total body weight: dose or concentration left out as unconfirmed; settings: for body weight: 40 mg/kg QD, FIG. 16
Excerpt: 75 percent of ovarian cancer patients already have disseminated disease at the time of first diagnosis (E. Lengyel, Ovarian cancer development and metastasis. Am J Pathol 177, 1053-1064 (2010)). For these patients inhibiting metastasis would have limited therapeutic benefit. Rather, these patients require a therapeutic agent that can regress or, at the very least, stabilize existing metastases. Whether the d-amino acid Psap peptide could have therapeutic efficacy in a model of established metastatic dissemination was investigated. 1×10^6 DF14 cells, expressing firefly luciferase, were injected into the peritoneal cavity of SCID mice to mimic the route of dissemination of human ovarian cancer. The growth of metastatic colonies in the mice in real time were monitored via relative luciferase intensity and when the average intensity of the luciferase signal was 0.5-1×10^8 RLU, treatment with vehicle (saline), the d-amino acid peptide (40 mg/kg QD), or cisplatin (4 mg/kg QOD) was started. […] However, during those 20 days half of the cisplatin treated mice died from adverse side effects of the drug as defined by total body weight, which decreased by 40% (FIG. 13C). Moreover, after 20 days the tumors in the group of cisplatin treated mice that survived began to grow, despite continued treatment with cisplatin, and all the remaining mice died within 10 days (FIG. 13A).
The livers and spleens of the Psap peptide treated mice were examined histologically (H&E) to determine whether there were any micrometastases.
Metastases in the peritoneal cavity recruited Cd11b^+/Gr1^+ bone marrow derived cells, analogous to lung metastases was investigated (3). […] The fluid was FACS sorted from these mice to assess the population of Cd11^+/Gr1^+ bone marrow derived cells. […] Based on these findings it was concluded that the Psap peptide was able to dramatically regress established metastases to the point where no detectable lesions could be found.

thrombospondin-1 (Tsp-1) = test: Tsp-1 activation in cultured cells by Western blot; type: cell-based
Method: Cells were cultured and contacted with 4 micrograms/mL or 10 micrograms/mL of each peptide and the level of thrombospondin-1 (Tsp-1) activation was measured by Western blot. Tsp-1 has been previously shown to be activated by Saposin A protein.

[2] = Stability in human plasma at 37° C., read out as Tsp-1 stimulation in WI-38 fibroblasts (ELISA); type: in vitro ADME; settings: 24 hours
Method: The cyclic peptide DWLPK (SEQ ID NO: 1) was also tested for stability in human plasma compared to the linear peptide dWIP (SEQ ID NO: 5). Each peptide was incubated in human plasma at 37 degrees Celsius, for 2, 4, 8, or 24 hours.
Cyclization also has the effect of increasing the stability of peptides by forcing them into a conformation that is not recognized by most naturally occurring proteases (9, 10, 14-18). The stability of the cyclic peptide to the linear d-amino acid peptide in human plasma was compared.

Tsp-1 = Tsp-1 expression in lungs of mice pretreated with PC3M-LN4 conditioned media (western blot); type: in vivo, C57BL6/J mice; settings: dose of 10 mg/kg, 3 days, LN4 CM
Method: The activity of the 1,3-d-amino acid Psap peptide and the native Psap peptide were tested in vivo. The peptides were systematically administered to C57BL6/J mice that were pretreated with conditioned media (CM) from PC3M-LN4 (LN4) cells, which previously mimicked the systemic properties of metastatic tumors by repressing the expression of Tsp-1 in the lungs of mice (3, 4). After 3 days of treatment with LN4 CM alone or in combination with two different doses (10 mg/kg/day and 30 mg/kg/day) of d- and 1-amino acid peptides (independently) protein pools were prepared from the harvested lungs of each treatment group. The level of Tsp-1 expression in the lungs of these mice were assessed by western blot analysis. It was observed that the 1,3-d-amino acid peptide stimulated Tsp-1 3-fold greater than the native peptide (FIG. 12B). […] Based on the observation that the in vitro activity of the two peptides was virtually identical, it was concluded that the difference in activity in vivo was due to a difference in stability.

Compound: N.N.[Cl][Pt][Cl] [cisplatin]
- necrosis (low Anexin V and high PI staining) ([1]; FIG. 12E, compared with Tsp-1 treatment): much greater percentage of ovarian cancer cells underwent necrosis
- time until all remaining mice died (DF14 cells; after day 20 of treatment): ≤ 10 days
- decrease of total body weight (DF14 cells; during first 20 days): 40%
- mice that died from adverse side effects (DF14 cells; during first 20 days): half
- tumor volume as determined by luciferase intensity (DF14 cells; first 20 days of treatment, peptide 40 mg/kg QD, cisplatin 4 mg/kg QOD): able to regress tumor volume
- tumor growth after 20 days despite continued treatment (DF14 cells; surviving mice, cisplatin 4 mg/kg QOD): began to grow

Compound: CC(C)C[C@@H]1NC(=O)[C@H](Cc2c[nH]c3ccccc23)NC(=O)[C@@H](CC(=O)O)NC(=O)[C@H](CCCCN)NC(=O)[C@@H]2CCCN2C1=O [cyclic dWLPK] (cyclo(K[dD]WLP))
- effectiveness at increasing the level of Tsp-1 (thrombospondin-1 (Tsp-1); cyclic peptides, 4 micrograms/mL or 10 micrograms/mL, Western blot, FIG. 2): least effective

Compound: CC(C)C[C@@H](NC(=O)[C@H](Cc1c[nH]c2ccccc12)NC(=O)[C@H](N)CC(=O)O)C(=O)N1CCC[C@H]1C(=O)O [linear dWIP, reference compound] (H-[dD]W[dL]P-OH; N-terminus and C-terminus assumed)
- body weight (DF14 cells; listed as Psap peptide): no loss of body weight
- body weight (DF14 cells; listed as psap peptide): no effect on body weight
- ability to activate Tsp-1 after incubation in human plasma ([2]; 37 degrees Celsius, FIG. 3): significantly less activity
- Tsp-1 stimulation after incubation in human plasma ([2]; 37° C., ELISA): no longer able to stimulate Tsp-1

Compound: native peptide: native DWLP (SEQ ID NO: 6), L-amino acid, prosaposin peptide (WT)
- Tsp-1 stimulation in lungs (Tsp-1): did not significantly stimulate Tsp-1

Compound: RhTsp-1: recombinant human Tsp-1 (thrombospondin-1)
- apoptotic cells (Anexin V positivity) by FACS ([1]; 1 μM, 48 hours, FIG. 12E): 30-60%
- decrease in total cell number, of the original number of cells plated ([1]; three cell lines, up to 72 hours, 1 μM, FIG. 12D): up to 50%

Compound: linear DWGPK: linear version of peptide DWGPK (SEQ ID NO: 2) (not fully specified) [reference compound]
- effectiveness at increasing Tsp-1, linear versions of the peptides (thrombospondin-1 (Tsp-1); similar study with linear versions): more effective than linear DWLPK
